The NIST ThermoML archive (doi:10.1016/j.jct.2015.12.025)

Legend:
[1] = xn = mol fraction of the nth substance listed; conditions: 102 kPa, Liquid, Vibrating tube method
[2] = refractive index (Na D-line) (dimensionless); xn = mol fraction of the nth substance listed; conditions: 102 kPa, Liquid, Standard Abbe refractometry

C[Si]1(CCC(F)(F)F)O[Si](C)(CCC(F)(F)F)O[Si](C)(CCC(F)(F)F)O1 (stereo not given) + CCc1ccccc1
Conditions	mass density, 308.15 K [kg/m3]	mass density, 313.15 K [kg/m3]	mass density, 318.15 K [kg/m3]	mass density, 323.15 K [kg/m3]	refractive index, 308.15 K	refractive index, 313.15 K	refractive index, 318.15 K	refractive index, 323.15 K
[1], x1 = 0.05	905.01	900.4	895.69	890.85	–	–	–	–
[1], x1 = 0.1	947.97	943.16	938.39	933.5	–	–	–	–
[1], x1 = 0.15	984.47	979.55	974.46	969.52	–	–	–	–
[1], x1 = 0.1967	1013.95	1008.92	1003.57	998.43	–	–	–	–
[1], x1 = 0.25	1043.11	1037.94	1032.55	1027.19	–	–	–	–
[1], x1 = 0.2998	1066.87	1061.66	1056.21	1050.74	–	–	–	–
[1], x1 = 0.35	1088.17	1082.82	1077.22	1071.74	–	–	–	–
[1], x1 = 0.377	1098.7	1093.23	1087.75	1082.06	–	–	–	–
[1], x1 = 0.4437	1121.97	1116.36	1110.93	1104.98	–	–	–	–
[1], x1 = 0.5001	1139.32	1133.58	1127.97	1121.88	–	–	–	–
[1], x1 = 0.5492	1152.93	1147.02	1141.17	1135.21	–	–	–	–
[1], x1 = 0.5994	1165.69	1159.63	1153.7	1147.6	–	–	–	–
[1], x1 = 0.6499	1177.11	1171.2	1165.14	1158.94	–	–	–	–
[1], x1 = 0.6997	1187.73	1181.59	1175.49	1169.24	–	–	–	–
[1], x1 = 0.7502	1197.39	1191.42	1185.03	1178.51	–	–	–	–
[1], x1 = 0.7999	1206.57	1200.31	1193.75	1187.44	–	–	–	–
[1], x1 = 0.8498	1214.84	1208.54	1202.09	1195.57	–	–	–	–
[1], x1 = 0.9002	1222.62	1216.17	1209.67	1203.21	–	–	–	–
[1], x1 = 0.9498	1229.79	1223.31	1216.79	1210.24	–	–	–	–
[1], x1 = 1	1236.63	1230.05	1223.55	1216.99	–	–	–	–
[2], x1 = 0.05	–	–	–	–	1.46829	1.46563	1.46295	1.46034
[2], x1 = 0.1	–	–	–	–	1.4527	1.45013	1.44755	1.445
[2], x1 = 0.15	–	–	–	–	1.43984	1.43731	1.43479	1.43233
[2], x1 = 0.1967	–	–	–	–	1.42972	1.42722	1.42478	1.42233
[2], x1 = 0.25	–	–	–	–	1.41987	1.41742	1.41503	1.41266
[2], x1 = 0.2998	–	–	–	–	1.41202	1.40962	1.40725	1.40493
[2], x1 = 0.35	–	–	–	–	1.40515	1.40278	1.40047	1.39817
[2], x1 = 0.377	–	–	–	–	1.40179	1.39946	1.39713	1.39485
[2], x1 = 0.4437	–	–	–	–	1.39447	1.39219	1.38991	1.38768
[2], x1 = 0.5001	–	–	–	–	1.38911	1.38686	1.38464	1.38243
[2], x1 = 0.5492	–	–	–	–	1.38496	1.38275	1.38053	1.37836
[2], x1 = 0.5994	–	–	–	–	1.3811	1.37891	1.37672	1.37458
[2], x1 = 0.6499	–	–	–	–	1.3776	1.37545	1.37326	1.37112
[2], x1 = 0.6997	–	–	–	–	1.37445	1.37234	1.37017	1.36807
[2], x1 = 0.7502	–	–	–	–	1.37152	1.36941	1.36729	1.36521
[2], x1 = 0.7999	–	–	–	–	1.36888	1.36677	1.36471	1.36262
[2], x1 = 0.8498	–	–	–	–	1.36642	1.36437	1.36228	1.36025
[2], x1 = 0.9002	–	–	–	–	1.36413	1.3621	1.36007	1.35801
[2], x1 = 0.9498	–	–	–	–	1.36206	1.36004	1.35799	1.356
[2], x1 = 1	–	–	–	–	1.36011	1.35808	1.35608	1.35407
